From ChEMBL document CHEMBL5331121, “Preferred Conformation-Guided Discovery of Potent and Orally Active HIF Prolyl Hydroxylase 2 Inhibitors for the Treatment of Anemia” (J Med Chem, 2023)
Active and inactive are the calls of the source. The calls are words filed in the database; no cut-off is given here.

Columns and labels:
Egl nine homolog 1 = Egl nine homolog 1 (Homo sapiens, UniProt Q9GZT9); test: Binding affinity to […] PHD2 (181 to 426 residues) (unknown origin) by fluorescence polarization assay
Egl nine homolog 1, sequence (Q9GZT9 whole entry, the tested form may be a part): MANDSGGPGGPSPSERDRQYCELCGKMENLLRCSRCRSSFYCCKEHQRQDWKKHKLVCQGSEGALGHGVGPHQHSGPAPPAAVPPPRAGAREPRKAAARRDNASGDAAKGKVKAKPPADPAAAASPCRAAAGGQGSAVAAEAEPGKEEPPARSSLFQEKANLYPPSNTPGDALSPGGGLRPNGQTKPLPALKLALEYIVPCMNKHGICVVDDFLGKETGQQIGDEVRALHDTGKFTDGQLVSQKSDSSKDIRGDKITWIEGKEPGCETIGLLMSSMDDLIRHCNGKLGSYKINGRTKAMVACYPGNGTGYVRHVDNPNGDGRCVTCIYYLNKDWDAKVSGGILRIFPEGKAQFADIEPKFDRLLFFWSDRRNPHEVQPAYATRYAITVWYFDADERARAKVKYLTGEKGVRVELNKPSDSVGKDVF

Hep 3B2 [1] = test: Upregulation of EPO mRNA level in human Hep3B cells incubated for 12 hrs by RT-qPCR analysis; assay type: functional, cell-based; details: dose 5-20 µM
[2] = target: Hypoxia-inducible factor 1-alpha (Homo sapiens) (UniProt Q16665); test: Induction of HIF-1alpha stabilization in human Hep3B cells at 20 to 50 uM by Western blotting analysis; assay type: cell-based; details: dose 20-50 µM
Hypoxia-inducible factor 1-alpha (Homo sapiens), sequence (Q16665 whole entry, looked up): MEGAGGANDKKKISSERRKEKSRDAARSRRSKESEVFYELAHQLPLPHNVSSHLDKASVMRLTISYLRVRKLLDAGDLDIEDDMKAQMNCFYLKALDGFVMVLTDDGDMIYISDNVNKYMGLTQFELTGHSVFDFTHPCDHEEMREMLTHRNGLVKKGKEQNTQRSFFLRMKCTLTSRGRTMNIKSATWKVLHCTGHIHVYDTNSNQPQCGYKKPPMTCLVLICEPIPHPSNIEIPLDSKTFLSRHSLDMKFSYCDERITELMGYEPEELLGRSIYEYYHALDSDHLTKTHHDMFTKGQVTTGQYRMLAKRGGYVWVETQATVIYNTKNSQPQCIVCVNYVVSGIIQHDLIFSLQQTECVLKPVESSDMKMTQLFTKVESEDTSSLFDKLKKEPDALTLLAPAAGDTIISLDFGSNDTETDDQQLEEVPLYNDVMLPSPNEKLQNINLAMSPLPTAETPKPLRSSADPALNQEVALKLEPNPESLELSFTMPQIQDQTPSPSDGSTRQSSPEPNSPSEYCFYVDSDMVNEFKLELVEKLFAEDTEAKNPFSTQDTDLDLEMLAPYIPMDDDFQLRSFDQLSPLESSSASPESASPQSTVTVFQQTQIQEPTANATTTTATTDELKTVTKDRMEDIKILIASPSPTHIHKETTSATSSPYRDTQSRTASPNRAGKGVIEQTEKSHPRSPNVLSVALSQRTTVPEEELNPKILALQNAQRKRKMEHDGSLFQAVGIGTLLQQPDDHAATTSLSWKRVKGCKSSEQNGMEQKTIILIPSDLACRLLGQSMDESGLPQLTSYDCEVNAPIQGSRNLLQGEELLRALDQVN

Hep 3B2 [3] = test: Cytotoxicity against human Hep3B cells incubated for 48 hrs by CCK-8 assay; assay type: toxicity, cell-based; details: hep 3b2, 48 h
[4] = target: Endothelial PAS domain-containing protein 1 (Homo sapiens) (UniProt Q99814); test: Induction of HIF-2alpha stabilization in human Hep3B cells at 20 to 50 uM by Western blotting analysis; assay type: cell-based; details: dose 20-50 µM
Endothelial PAS domain-containing protein 1 (Homo sapiens), sequence (Q99814 whole entry, the tested form may be a part): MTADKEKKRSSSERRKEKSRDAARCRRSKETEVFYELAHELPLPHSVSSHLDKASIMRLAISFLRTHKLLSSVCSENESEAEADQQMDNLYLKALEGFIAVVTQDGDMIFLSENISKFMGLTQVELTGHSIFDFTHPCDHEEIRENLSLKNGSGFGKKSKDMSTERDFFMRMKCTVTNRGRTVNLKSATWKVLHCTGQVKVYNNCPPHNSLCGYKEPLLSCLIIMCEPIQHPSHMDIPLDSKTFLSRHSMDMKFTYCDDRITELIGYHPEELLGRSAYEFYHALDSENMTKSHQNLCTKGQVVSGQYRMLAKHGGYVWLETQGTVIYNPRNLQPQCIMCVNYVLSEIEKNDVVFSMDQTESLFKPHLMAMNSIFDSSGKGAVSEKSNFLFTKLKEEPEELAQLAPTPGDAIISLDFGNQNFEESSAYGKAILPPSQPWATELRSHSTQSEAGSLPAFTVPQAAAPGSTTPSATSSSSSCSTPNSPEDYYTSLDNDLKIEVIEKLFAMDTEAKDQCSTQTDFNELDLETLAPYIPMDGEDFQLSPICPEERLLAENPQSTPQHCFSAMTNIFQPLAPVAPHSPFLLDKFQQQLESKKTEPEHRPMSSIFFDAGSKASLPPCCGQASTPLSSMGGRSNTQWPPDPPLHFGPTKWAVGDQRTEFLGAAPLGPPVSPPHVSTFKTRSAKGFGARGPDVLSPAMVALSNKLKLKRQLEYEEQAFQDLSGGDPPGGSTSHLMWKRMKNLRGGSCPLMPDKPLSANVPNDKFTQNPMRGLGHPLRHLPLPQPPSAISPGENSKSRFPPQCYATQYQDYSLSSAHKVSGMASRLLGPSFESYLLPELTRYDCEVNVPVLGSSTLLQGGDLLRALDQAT

Erythrocyte = test: Upregulation of reticulocytes in C57BL/6J mouse assessed as increase in RBC at 10 to 50 mg/kg, po administered once daily for 3 days; assay type: functional, organism-based; details: dose 10-50 mg/kg, time 3.0 day
Mus musculus = test: Upregulation of reticulocytes in C57BL/6J mouse at 10 mg/kg, po administered once daily for 3 days; assay type: functional, organism-based; details: time 3.0 day
[5] = Upregulation of EPO mRNA level in human Hep3B cells assessed as fold increase at 20 uM incubated for 12 hrs by RT-qPCR analysis; assay type: functional, Hep 3B2
Hep 3B2 [6] = test: Effect on VEGFA gene expression in human Hep3B cells at 5 to 20 uM incubated for 12 hrs by RT-qPCR analysis; assay type: functional, cell-based; details: dose 5-20 µM
[7] = Metabolic stability in rat liver microsomes assessed as half life at 1 uM preincubated for 5 mins followed by NADPH addition and measured upto 60 mins by LC-MS/MS analysis; assay type: ADME, Microsome; details: time < 65 min
[8] = Metabolic stability in rat liver microsomes assessed as clearance at 1 uM preincubated for 5 mins followed by NADPH addition and measured upto 60 mins by LC-MS/MS analysis; assay type: ADME, Microsome; details: time < 65 min, read-out: CLH

COc1ccc(C(=O)N2CCC(c3cnc(C(=O)NCC(=O)O)c(O)c3)CC2)cc1
IC50 (Egl nine homolog 1): 54.1 nM

Cc1ccc(C(=O)N2CCC(c3cnc(C(=O)NCC(=O)O)c(O)c3)CC2)cc1
IC50 (Egl nine homolog 1): 34.6 nM

O=C(O)CNC(=O)c1ncc(C2CCN(C(=O)c3cccc(Cl)c3)CC2)cc1O
IC50 (Egl nine homolog 1): 195 nM

O=C(O)CNC(=O)c1ncc(C2CCN(C(=O)c3ccc(OC(F)(F)F)cc3)CC2)cc1O
IC50 (Egl nine homolog 1): 24.6 nM | Activity (Hep 3B2 [1]): Dose-Dependent Effect | Activity [2]: Active | Activity (Hep 3B2 [3]): Non-Toxic | Activity [4]: Active | Activity (Erythrocyte): Dose-Dependent Effect | Activity (Mus musculus): Active | fold change (FC) [5]: 7 | Activity (Hep 3B2 [6]): inactive

O=C(O)CNC(=O)c1ncc(C2=CCN(S(=O)(=O)Cc3ccc(C(F)(F)F)cc3)CC2)cc1O
IC50 (Egl nine homolog 1): 13.1 nM | half-life at 1 µM [7]: 7.35 min | microsomal CLint at 1 µM [8]: 135 µL/min/mg

O=C(O)CNC(=O)c1ncc(C2CCN(C(=O)c3cc(F)cc(F)c3)CC2)cc1O
IC50 (Egl nine homolog 1): 256 nM

O=C(O)CNC(=O)c1ncc(C2CCN(C(=O)CNc3ccc(F)cc3)CC2)cc1O
IC50 (Egl nine homolog 1): 24.3 nM
